Assays:
[1] = system: asthma exacerbation or attack; assay: Clinical trial 1.2: long-term prophylactic efficacy in asthmatic subjects; assay type: in vivo, asthmatic subjects (human); settings: 10 to 800mg/day orally; for frequency of asthma exacerbation or attack: at least 2 up to 6 months and more, compared with alternative, non-prophylactic therapy; for need for concomitant (bronchodilator) therapy: at least 2 up to 6 months, subjects initially dependent on methyl-xanthine or β₂-agonist therapy
Procedure: (§1) Suitable individual oral dosages, e.g. for COMPOUNDS D2 and K1 in substantially pure form, in such clinical trials comprise, e.g. from ca. 10 to 800mg, e.g. from ca. 50 to 250mg/day, for example at dosages of ca. 25, 50, 200 or 400mg/day orally administered 1x or in divided doses 2 to 3x daily, for example in encapsulated form as hereinafter described in EXAMPLE F. Both acute (0 to 1 hour) and long-term (up to 12 hour) change in lung function is determined post-medication by measurement of lung function parameters, e.g. as follows: • a) FVC; FEV 0.5; FEV 1.0; FEV 3.0; • b) FEV 0.5/FVC; FEV 1/FVC; FEV 3/FVC; • c) PEF; FEF 25-75%; FEF 75-85%; FEF 25%; FEF 50%; FEF 75%; FEF 0.2-1.2 • d) Flow expiratory curve and flow inspiratory curve. Tolerance of medication and possible occurrence of side effects are also reported. In addition to monitoring of lung function, blood eosinophil levels are also monitored and the incidence of activated eosinophils and eosinophil secretory proteins determined. In individual studies, subjects are also subjected to lung lavage and the presence of eosinophils and platelets and their respective secretory products determined before and after exposure to allergen. […] Initial dosaging for e.g. COMPOUND D2 or COMPOUND K1 in substantially pure form is of the order of from 10 to 800mg, e.g. from ca. 50 to 250mg/day, for example at dosages of ca. 25, 50, 200 or 400mg/day administered, e.g. orally once or in divided dosages 2 to 3x daily with subsequent reduction in appropriate cases to a maintenance dosage of 10 to 400mg/day orally. (Suitable dosage forms are e.g. as hereinafter described in EXAMPLE F). During the course of the trial subjects are monitored continually and all relevant parameters recorded including lung function, alterations in the incidence of activated eosinophils or the release of eosinophil products into the blood or bronchial fluids and, in particular, frequency and severity of asthma exacerbation or attack. Additional bronchodilator therapy is provided on the occasion of any such attack. […] During the course of the trial, subjects are monitored continually and all relevant parameters are recorded, including basal lung function, frequency of attack with impairment of lung function, requirement for other medication and frequency of absenteeism attributable to disease status. […] In cases where frequent use of alternative medication is recorded at trial entry, reduced need for concomitant medication is also observed as the trial progresses. […] Recorded symptomatology attributable to condition is also found to undergo reversal during treatment. […]

[2] = system: allergic, atopic bronchoconstrictor response; assay: Clinical trial 1.1: prophylactic efficacy before allergen challenge in obstructive inflammatory airways disease, e.g. asthma; assay type: in vivo, subjects (human); settings: oral ca. 10 to 800mg/day, 1 to 2 hours or 1 to 7 days prior to allergen challenge; compared with placebo
Procedure: as §1

beagle dogs = assay: 26-week oral tolerability in beagle dogs; assay type: in vivo; settings: up to 200 mg/kg/day P.O for 26 weeks
[3] = Acute toxicity (LD50) in mice; settings: mouse, in vivo, read-out: LD₅₀
Procedure: (§2) Thus established LD₅₀ values for the COMPOUND D2 in substantially pure form in mice and rats after 14 days p.o. and 7 days i.v. are: in mice, p.o […], i.v. 163 mg/kg; in rats, p.o. 1721 mg/kg, i.v. 50 mg/kg.

[4] = system: elevated eosinophil presence in the blood; assay: Clinical trial 3: utility in hypereosinophilia and eosinophil-related disorders; assay type: in vivo, subjects (human); settings: orally 10 to 400mg daily, up to 2 to 3 months
Procedure: (§3) Suitable individual oral dosages, e.g. for COMPOUNDS D2 and K1 in substantially pure form, in such clinical trials comprise, e.g. from ca. 10 to 800mg, e.g. from ca. 50 to 250mg/day, for example at dosages of ca. 25, 50, 200 or 400mg/day orally administered 1x or in divided doses 2 to 3x daily, for example in encapsulated form as hereinafter described in EXAMPLE F. Both acute (0 to 1 hour) and long-term (up to 12 hour) change in lung function is determined post-medication by measurement of lung function parameters, e.g. as follows: • a) FVC; FEV 0.5; FEV 1.0; FEV 3.0; • b) FEV 0.5/FVC; FEV 1/FVC; FEV 3/FVC; • c) PEF; FEF 25-75%; FEF 75-85%; FEF 25%; FEF 50%; FEF 75%; FEF 0.2-1.2 • d) Flow expiratory curve and flow inspiratory curve. Tolerance of medication and possible occurrence of side effects are also reported. In addition to monitoring of lung function, blood eosinophil levels are also monitored and the incidence of activated eosinophils and eosinophil secretory proteins determined. In individual studies, subjects are also subjected to lung lavage and the presence of eosinophils and platelets and their respective secretory products determined before and after exposure to allergen. […] Initial dosaging for e.g. COMPOUND D2 or COMPOUND K1 in substantially pure form is of the order of from 10 to 800mg, e.g. from ca. 50 to 250mg/day, for example at dosages of ca. 25, 50, 200 or 400mg/day administered, e.g. orally once or in divided dosages 2 to 3x daily with subsequent reduction in appropriate cases to a maintenance dosage of 10 to 400mg/day orally. (Suitable dosage forms are e.g. as hereinafter described in EXAMPLE F). During the course of the trial subjects are monitored continually and all relevant parameters recorded including lung function, alterations in the incidence of activated eosinophils or the release of eosinophil products into the blood or bronchial fluids and, in particular, frequency and severity of asthma exacerbation or attack. Additional bronchodilator therapy is provided on the occasion of any such attack. […] UTILITY IN PNEUMOCONIOSIS/BRONCHITIS The trial is performed analogously to 1.2 above but with groups of subjects having a history of pneumoconiosis or severe bronchitis, e.g. characterised by events of restricted lung function, for example including difficulty in breathing, wheezing, dyspnea or occasional bronchoconstrictor attack and a record of pneumoconiosis- or bronchitis-related work absenteeism. […] COMPOUND D2 or COMPOUND K1 each in substantially pure form is administered daily at oral dosage rates as set forth under 1.2 above, over periods in excess of 2, preferably in excess of 3, months. During the course of the trial, subjects are monitored continually and all relevant parameters are recorded, including basal lung function, frequency of attack with impairment of lung function, requirement for other medication and frequency of absenteeism attributable to disease status. […] In cases where frequent use of alternative medication is recorded at trial entry, reduced need for concomitant medication is also observed as the trial progresses. Similar results are obtainable employing other COMPOUNDS OF THE INVENTION at the same or equivalent dosage rates. • 3. […] COMPOUND D2 or COMPOUND K1 in substantially pure form is administered orally at a daily dosage rate of from 10 to 400mg, e.g. from cam. 50 to 250mg/day, for example at dosages of ca. 25, 50 or 200mg, e.g. in dosage form as hereinafter described in EXAMPLE F. The trial is continued for a period of up to 2 to 3 months. Blood samples are collected regularly during the course of the trial and assayed for blood-eosinophil count, incidence of activated eosinophils and levels of eosinophil secretory proteins. […] Recorded symptomatology attributable to condition is also found to undergo reversal during treatment. Similar results are obtainable employing other COMPOUNDS OF THE INVENTION at the same or equivalent dosage rates.

[5] = system: pneumoconiosis or severe bronchitis; assay: Clinical trial 2: utility in pneumoconiosis/bronchitis; assay type: in vivo, subjects (human); settings: daily oral dosage as under 1.2, in excess of 2 months; for need for concomitant medication: frequent alternative medication at trial entry
Procedure: as §3

[6] = system: allergen induced eosinophilia; assay: Influence on allergen induced eosinophilia following inhalation of test compound; bronchoalveolar lavage 24 hrs after challenge; assay type: in vivo, Male guinea-pigs (Dunkin-Hartley); settings: inhalation immediately before challenge, 10.0 to 100mg/kg; lavage 24 hrs following challenge
Procedure: EXAMPLE B: INFLUENCE ON ALLERGEN INDUCED EOSINOPHILIA IN THE GUINEA-PIG FOLLOWING INHALATION
Male guinea-pigs (Dunkin-Hartley) of ca. 300-400g are sensitized employing 10µg amounts of ovalbumin (3x) and applying the technique described in Sanjar et al., Br. J. Pharmacol., 99, 679-686 (1990).
Immediately before challenge COMPOUND OF THE INVENTION, for example COMPOUND D2 or COMPOUND K1 each in substantially pure form, is administered to sensitized animals by inhalation. Administration is effected via a nose-cone either in dry powder with delivery from a brush feed micronising jet mill powder aerosol generator, as described in Bernstein et al. "Aerosols: Science, Technology and Industrial Application of Airborne Particles", Extended Abstract, eds. B.Y.H. Liu. et. al., Elsevier Science, New York, 1984 or in solution from a nebulizer. Antigen challenge or exposure is then carried out, again in accordance with the methods described by Sanjar et. al. loc cit. at p. 680 column 1, employing 10µg ovalbumin in 0.01% solution. Broncheolar lavage is performed 24 hrs following challenge, as follows: • 1. Airway lavage Guinea-pigs are killed by an intraperitoneal injection of pentobarbitone 100mg/kg). The trachea is exposed and cannulated. 10ml of Hank's balanced solution is introduced into the lungs and immediately aspirated by gentle compression of the lung tissue. This procedure is repeated five times. Aspiration fluid is pooled at room temperature in Falcon plastic tubes (60ml). Fluid recovered from the six washes normally exceeds 50ml (85%). The cell suspension is centrifuged (200g for 10 minutes); the supernatant is discarded and the cell pellet resuspended in 1ml of Hank's balanced solution. • 2. Total cell counts 10µl of the 1ml cell suspension is added to 190µl or 90µl (when cell count is low) of Turk's stain (Merck, Darmstadt, Germany) and total cell numbers are determined in a Neubauer (brightline) hemocytometer. The incidence of cells in the 1ml suspension is calculated by multiplying the total cells enumerated in a square of 1mm² by the original dilution viz.: No. of cells counted x dilution x […] = no. of cells/ml. • 3. Differential cell counts The cell suspension is diluted in Hank's balanced solution to obtain a cell concentration of 10⁶ cells per ml. 50µl of this cell suspension is placed in the cytospin (Cytospin 2, Shandon Co.) tube and overlaid by 200µl of buffer. The cytospin is used at 600rpm for 8 minutes. Results for groups of animals receiving COMPOUNDS OF THE INVENTION at varying doses are compared with results for control challenged animals receiving no test substance.

[7] = Acute toxicity (LD50) in rats; settings: rat, in vivo, read-out: LD₅₀
Procedure: as §2

[8] = system: eosinophil accumulation in the airway lumen; assay: Suppression of eosinophil accumulation in allergen (ovalbumin) treated, sensitised animals; airway lavage cell counts; assay type: in vivo, Guinea-pigs (Dunkin-Hartley, male); settings: for airway eosinophil accumulation compared with untreated controls: 10.0 - 100mg/kg/day as a solution orally for 6 consecutive days prior to challenge, 1 hour prior and seven hours after challenge, lavage 24 hours after challenge
[9] = Tolerability in clinical trials; assay type: in vivo, human; settings: oral dosage rates of 50, 200 and 400mg/day
beagle dog = assay: Pilot toxicological studies in the beagle dog; assay type: in vivo; settings: 150 and 200 mg/kg p.o. in gelatin capsules over 5 weeks and in olive oil from week 6 to week 8 on

| Compound | frequency of asthma exacerbation or attack [1] | need for concomitant (bronchodilator) therapy [1] | eosinophilic response [2] | lung function parameters [2] | blood-eosinophil count [4] | incidence of activated eosinophils and eosinophil secretory protein levels [4] | recorded symptomatology attributable to condition [4] | basal lung function [5] | frequency of attack and absenteeism [5] | need for concomitant medication [5] | eosinophil counts as compared with control groups [6] | neutrophil counts as compared with control groups [6] | total cell counts as compared with control groups [6] | airway eosinophil accumulation compared with untreated controls [8] | other results |
| --- | --- | --- | --- | --- | --- | --- | --- | --- | --- | --- | --- | --- | --- | --- | --- |
| COC1=Cc2ccccc2C(=CC(=O)O)c2ccsc21 [COMPOUND D2, [10-Methoxy-4H-benzo[4,5]cyclohepta[1,2-b]thiophen-4-ylidene]-acetic acid] | marked reduction | increasingly reduced need | reduction of eosinophilic response | marked improvement | decreased blood-eosinophil count | decreased incidence | reversal | overall improvement | reduced frequency | reduced need | clear reduction | clear reduction | clear reduction | significant reduction | tolerability (beagle dogs): generally well tolerated; LD50 at 168 h ([3]; iv, after 7 days): 163 mg/kg; LD50 at 336 h ([3]; po, after 14 days): 1620 mg/kg; LD50 at 168 h ([7]; iv, after 7 days): 50 mg/kg; LD50 at 336 h ([7]; po, after 14 days): 1720 mg/kg; activity in the subject test model (airway eosinophil accumulation) ([8]; dosages of 10 and 50mg/kg/day s.c.): significant activity; tolerability / side effects [9]: well tolerated with no significant side effect occurrance |
| COC1=Cc2ccccc2C(=CC(=O)O)c2cc(Cl)sc21 [COMPOUND K1, [2-Chloro-10-methoxy-4H-benzo[4,5]cyclohepta[1,2-b]thiophen-4-ylidene]-acetic acid] |  |  |  |  | decreased blood-eosinophil count | decreased incidence | reversal | overall improvement | reduced frequency | reduced need | clear reduction | clear reduction | clear reduction | significant reduction | pathological effects (beagle dog): no pathological effects |
| COC1=Cc2ccccc2C(=CC(=O)O)c2cc(Cl)sc21 [COMPOUND K2, [2-Chloro-10-methoxy-4H-benzo[4,5]cyclohepta[1,2-b]thiophen-4-ylidene]-acetic acid] | marked reduction | increasingly reduced need | reduction of eosinophilic response | marked improvement |  |  |  |  |  |  |  |  |  |  |  |
